Test results taken from US4086239A, “Thiazole bis-phosphates and phosphonates, intermediates, and insecticidal compositions and methods” (priority 1977, dated 1978).

Assays:
Format in all cases: in vivo
[1] = test system: Southern House Mosquito [Culex pipiens quinquefasciatus (Say)]; assay: Southern house mosquito larvae test; conditions: ppm by weight in aqueous solution, third-instar larvae, mortality after 48 hours
Procedure: K. Southern House Mosquito [Culex pipiens quinquefasciatus (Say)]
Insecticidal activity is determined using third-instar larvae of the mosquito (Culex pipiens quinquefasciatus). Ten larvae are placed in a 6-ounce, number 67 Dixie wax paper cup containing 100 milliliters of an aqueous solution of the test chemical. The treated larvae are stored at 70° F, and 48 hours later the mortality is recorded. The primary screening level for this test is 1 ppm by weight of the test compound in the solution.
(§1) For a particular insect, each compound was initially tested at the primary screening level. For the two-spotted mite, the testing stopped at this point. Those compounds showing less than 50% kill are represented in the table by the primary screening level preceded by a "greater than" sign. For those showing more than 50% kill, a "less than" sign is used. For all other insects those compounds showing greater than 50% kill at the primary screening level were then tested at successively lower levels, until the level was found at which approximately 50% kill was achieved. This level is listed as the LD50 (50% lethal dose) value in Table III. For those compounds showing approximately 50% kill at the primary screening level, the primary screening level itself is listed as the LD50.
(§2) In cases where this level was found, the level is reported as the LD50. When the level of 50% kill was not found, the number listed is the highest concentration tested, whether primary screen or higher, preceded by a "greater than" sign to indicate that a higher level than reported must be used to achieve 50% kill.

[2] = test system: Black Bean Aphid [Aphis fabae (Scop.)]; assay: Systemic assay on black bean aphid; conditions: ppm by weight in soil, mortality after seven days
Procedure: F. Systemic Assay on Black Bean Aphid [Aphis fabae (Scop.)]
The test chemical is diluted in acetone and an aliquot is thoroughly mixed into 500 grams of dry, sandy loam soil. The treated soil is placed in a pint ice cream carton and a nasturtium plant (Tropaeolum sp.) approximately 5 cm tall is transplanted into the carton. The plant is then infested with approximately 25 black bean aphids of mixed ages and placed in the greenhouse. Seven days later mortality is recorded. The primary screening level for this test is 10 ppm by weight of the test compound in the soil.
as §1, §2

[3] = test system: Salt-marsh Caterpillar [Estigmene acrea (Druryl)]; assay: Salt-marsh caterpillar leaf dip test; conditions: % by weight in solution, larvae, 48 hours plus 5 days if survivors
Procedure: G. Salt-marsh Caterpillar [Estigmene acrea (Druryl)]
(§3) A test solution is prepared by dissolving the test compound in a 50-50 acetone-water solution. A section of a curly dock (Rumex crispus) leaf, aproximately 2.5 centimeters wide and 4 centimeters long, is immersed in the test solution for 2-3 seconds, then placed on a wire screen to dry. The dried leaf is placed in a petri dish containing a moistened piece of filter paper, and infested with 5 second-instar salt-marsh caterpillar larvae. Mortality of the larvae is recorded 48 hours later. If surviving larvae are still present, a piece of synthetic media is added to the dish and the larvae are observed for an additional 5 days in order to detect delayed effects of the test compound. The primary screening level for this test is 0.05% by weight of the test compound in the solution.
as §1, §2

[4] = test system: German Cockroach [Blatella germanica (Linne)]; assay: German cockroach spray insecticide evaluation; conditions: % by weight in acetone-water spray; nymphs; mortality after 7 days
Procedure: B. German Cockroach [Blatella germanica (Linne)]
The test compound is diluted in a 50-50 acetone-water solution. Two milliliters of the solution are sprayed through a DeVilbiss type EGA hand spray gun into a circular cardboard cage contaning 10 1-month-old German Cockroach nymphs. The test cage is covered on the bottom with cellophane and the top with tulle netting. Percent mortality is recorded after 7 days. The primary screening level for this test is 0.1% by weight of the test compound in the acetone-water solution.
as §1, §2

[5] = test system: Cabbage Looper [Trichoplusia ni (Hubner)]; assay: Cabbage looper leaf dip test; conditions: % by weight in solution, larvae, 48 hours plus 5 days if survivors
Procedure: as §3
H. Cabbage Looper [Trichoplusia ni (Hubner)]
The procedure for cabbage looper larvae is the same as that used for salt-marsh caterpillar larvae, except that a cotyledon of hyzini squash (Calabacita abobrinha) of approximately the same size as the curly dock leaf section is used in place of the latter. The primary screening level for this test is 0.1% by weight of the test compound in the solution.
as §1, §2

[6] = test system: Two-Spotted Mite [Tetranychus urticae (Koch)]; assay: Two-spotted mite plant dip test; conditions: tested at primary screening level 0.05% only, < means more than 50% kill, > less than 50% kill, 7 days
Procedure: J. Two-Spotted Mite [Tetranychus urticae (Koch)]
A pinto bean plant (Phaseolus sp.), approximately 10 cm tall is transplanted into sandy loam soil in a 3-inch clay pot and infested with two-spotted mites of mixed ages and sexes. Twenty-four hours later the infested plants are inverted and dipped for 2-3 seconds in a 50-50 acetone-water solution of the test compound. The treated plant is held in a greenhouse for 7 days. Mortality is then determined for both the adult mites and the nynmphs hatching from eggs which were on the plants at the time of treatment. The primary screening level for this test is 0.05% by weight of the test compound in the acetone-water solution.
as §1

[7] = test system: Lygus bug [Lygus hesperus (Knight)]; assay: Lygus bug spray insecticide evaluation; conditions: % by weight in acetone-water spray; adults; mortality after 48 hours
Procedure: C. Lygus bus [Lygus hesperus (Knight)]
The test compound is dissolved in a 50-50 acetone-water solution. Two cubic centimeters of the solution are sprayed through a DeVilbiss-type EGA hand spray gun into a circular cardboard cage covered on the bottom with cellophane and the top with tulle netting, containing one string bean pod and 10 adult lygus bugs. Percent mortality is recorded after 48 hours. The primary screening level for this test is 0.5% by weight of the test compound in the acetone-water solution.
as §1, §2

[8] = test system: Tobacco Budworm [Heliotis virescens (F.)]; assay: Tobacco budworm leaf dip test; conditions: % by weight in solution, larvae, 48 hours plus 5 days if survivors
Procedure: as §3
I. Tobacco Budworm [Heliotis virescens (F.)]
Larvae of the tobacco budworm are used in this test in a procedure identical to that used for salt-marsh caterpillar larvae, except that a Romaine lettace (Latua sativa) leaf section of approximately the same size as the curly dock leaf section is used in place of the latter. The primary screening level for this test is 0.1% by weight of the test compound in the solution.
as §1
In cases where this level was found, the level is reported as the LD50. […]

[9] = test system: Black Bean Aphid [Aphis fabae (Scop.)]; assay: Direct spray assay on black bean aphid; conditions: % by weight in acetone-water, mortality after 3 days
Procedure: D. Direct Spray Assay on Black Bean Aphid [Aphis fabae (Scop.)]
A nasturtium plant (Tropaeolum sp.), approximately 5 cm tall, is transplanted into sandy loam soil in a 3-inch clay pot and infested with 25-50 black bean aphids of mixed ages. Twenty-four hours later the plant is sprayed, to the point of runoff, with a 50-50 acetone-water solution of the test chemical. The treated plant is held in the greenhouse and mortality is recorded after 3 days. The primary screening level for this test is 0.05% by weight of the test compound in the acetone-water solution.
as §1, §2

[10] = test system: Housefly [Musca domestica (L.)]; assay: Housefly insecticide evaluation; conditions: per 25 female houseflies; mortality after 48 hours
Procedure: A. Housefly [Musca domestica (L.) ]
The test compound is diluted in acetone and an aliquot is pipetted onto the bottom of a 55 × 15 mm aluminum dish. To insure even spreading on the bottom of the dish, 1 ml of acetone containing 0.02% peanut oil is added. After all the solvent has evaporated, the dish is placed in a circular cardboard cage containing 25 1-day-old female houseflies. The cage is covered on the bottom with cellophane and the top with tulle netting, and contains a sugar-water saturated cotton plug for maintenance of the flies. Mortality is recorded after 48 hours. The primary screening level for this test is 100 micrograms of the test compound per 25 female houseflies.
as §1, §2

[11] = test system: Green Peach Aphid [Myzus persicae (Sulzer)]; assay: Direct spray assay on green peach aphid; conditions: % by weight in acetone-water, mortality after 3 days
Procedure: E. Direct Spray Assay on Green Peach Aphid [Myzus persicae (Sulzer)]
A radish plant (Rhaphanus sativus), approximately 2 cm tall, is transplanted into sandy loam soil in a 3-inch clay pot and infested with 25-50 green peach aphids of mixed ages. Twenty-four hours later the plant is sprayed, to the point of runoff, with a 50-50 acetone-water solution of the test compound. The treated plant is held in a greenhouse and mortality is recorded after 3 days. The primary screening level for this test is 0.05% by weight of the test compound in the acetone-water solution.
as §1, §2

CCOP(=S)(OCC)SCC(=O)Nc1csc(NC(=O)CSP(=S)(OCC)OCC)n1 [Compound 1]
Approximate LD50, MOS (Southern house mosquito) [1]: .8 ppm
Approximate LD50, BAS (bean aphid systemic) [2]: > 10 ppm
Approximate LD50, SMC (salt-marsh caterpillar) [3]: > .05%
Approximate LD50, GR (German cockroach) [4]: > .1%
Approximate LD50, CL (cabbage looper) [5]: > .1%
Approximate LD50, 2SM (two-spotted mite) (2) eggs [6]: < .05%
Approximate LD50, 2SM (two-spotted mite) (1) post-embryonic [6]: < .05%
Approximate LD50, LB (Lygus bug) [7]: > .05%
Approximate LD50, TBW (tobacco budworm) [8]: > .1%
Approximate LD50, BBA (black bean aphid) [9]: .05%
Approximate LD50, HF (housefly) [10]: > 100 µg

COP(=S)(OC)SCC(=O)Nc1csc(NC(=O)CSP(=S)(OC)OC)n1 [Compound 2, 2,4-Bis(O,O -dimethylphosphorodithioylacetamide)thiazole]
Approximate LD50, GPA (green peach aphid) [11]: .03%
LC50 ([1]; read-out: Approximate LD50, MOS (Southern house mosquito)): > 1 µg/mL
Approximate LD50, BAS (bean aphid systemic) [2]: > 10 ppm
Approximate LD50, SMC (salt-marsh caterpillar) [3]: > .05%
Approximate LD50, GR (German cockroach) [4]: > .1%
Approximate LD50, CL (cabbage looper) [5]: > .1%
Approximate LD50, 2SM (two-spotted mite) (2) eggs [6]: > .05%
Approximate LD50, 2SM (two-spotted mite) (1) post-embryonic [6]: < .05%
Approximate LD50, LB (Lygus bug) [7]: > .05%
Approximate LD50, TBW (tobacco budworm) [8]: > .1%
Approximate LD50, BBA (black bean aphid) [9]: .002%
Approximate LD50, HF (housefly) [10]: > 100 µg

COP(=S)(OC)SCC(=O)Nc1nc(NC(=O)CSP(=S)(OC)OC)c(-c2ccccc2)s1 [Compound 9]
Approximate LD50, GPA (green peach aphid) [11]: .15%
Approximate LD50, MOS (Southern house mosquito) [1]: > 1.0 ppm
Approximate LD50, SMC (salt-marsh caterpillar) [3]: > .05%
Approximate LD50, CL (cabbage looper) [5]: > .5%
Approximate LD50, 2SM (two-spotted mite) (2) eggs [6]: < .05%
Approximate LD50, 2SM (two-spotted mite) (1) post-embryonic [6]: > .05%
Approximate LD50, BBA (black bean aphid) [9]: .2%
Approximate LD50, HF (housefly) [10]: > 100 µg

CCOP(=O)(OCC)SCC(=O)Nc1csc(NC(=O)CSP(=O)(OCC)OCC)n1 [Compound 8]
Approximate LD50, GPA (green peach aphid) [11]: .03%
Approximate LD50, MOS (Southern house mosquito) [1]: > 1.0 ppm
Approximate LD50, BAS (bean aphid systemic) [2]: > 10 ppm
Approximate LD50, SMC (salt-marsh caterpillar) [3]: > .05%
Approximate LD50, GR (German cockroach) [4]: > .1%
Approximate LD50, CL (cabbage looper) [5]: > .1%
Approximate LD50, 2SM (two-spotted mite) (2) eggs [6]: < .05%
Approximate LD50, 2SM (two-spotted mite) (1) post-embryonic [6]: < .05%
Approximate LD50, LB (Lygus bug) [7]: > .05%
Approximate LD50, TBW (tobacco budworm) [8]: > .1%
Approximate LD50, BBA (black bean aphid) [9]: .001%
Approximate LD50, HF (housefly) [10]: > 100 µg
